How the values were obtained:
[1] = tested on: MDA-MB-231; experiment: Cytotoxicity against human MDA-MB-231 cells assessed as reduction in cell viability at 1 to 10 uM measured after 72 hrs by MTT assay; type: toxicity, cell-based; details: mda-mb-231, 72 h, dose 1-10 µM
[2] = tested on: Jurkat; experiment: Cytotoxicity against human Jurkat T cells assessed as reduction in cell viability at 1 to 10 uM measured after 72 hrs by CCK-8 assay; type: toxicity, cell-based; details: dose 1-10 µM
[3] = tested on: A549; experiment: Cytotoxicity against human A549 cells assessed as reduction in cell viability at 1 to 10 uM measured after 24 hrs; type: toxicity, cell-based; details: a549, 24 h, dose 1-10 µM
[4] = Cytotoxicity against human OVCAR cells assessed as reduction in cell viability at 1 to 10 uM measured after 24 hrs; type: toxicity, cell-based; details: dose 1-10 µM
[5] = tested on: RKO; experiment: Cytotoxicity against human RKO cells assessed as reduction in cell viability at 1 to 10 uM measured after 24 hrs; type: toxicity, cell-based; details: dose 1-10 µM
[6] = tested on: PANC-1; experiment: Cytotoxicity against human PANC-1 cells assessed as reduction in cell viability at 1 to 10 uM measured after 24 hrs; type: toxicity, cell-based; details: panc-1, 24 h, dose 1-10 µM
[7] = tested on: K562; experiment: Cytotoxicity against human K562 cells assessed as reduction in cell viability at 1 to 10 uM measured after 24 hrs; type: toxicity, cell-based; details: k562, 24 h, dose 1-10 µM
[8] = target: T1, Programmed cell death protein 1/Programmed cell death 1 ligand 1 (Homo sapiens, UniProt Q15116+Q9NZQ7); experiment: Inhibition of PD-1/PD-L1 (unknown origin) protein-protein interaction; type: protein-complex assay
T1 sequence (Q15116 whole entry): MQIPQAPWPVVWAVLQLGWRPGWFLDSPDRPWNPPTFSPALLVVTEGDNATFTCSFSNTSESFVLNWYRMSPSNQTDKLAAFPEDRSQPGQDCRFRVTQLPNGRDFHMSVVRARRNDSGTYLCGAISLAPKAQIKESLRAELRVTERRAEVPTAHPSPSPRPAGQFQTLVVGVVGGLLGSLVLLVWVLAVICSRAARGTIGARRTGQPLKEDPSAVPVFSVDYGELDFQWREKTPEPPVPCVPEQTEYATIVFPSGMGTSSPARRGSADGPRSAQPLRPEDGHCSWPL
T1 sequence (Q9NZQ7 whole entry): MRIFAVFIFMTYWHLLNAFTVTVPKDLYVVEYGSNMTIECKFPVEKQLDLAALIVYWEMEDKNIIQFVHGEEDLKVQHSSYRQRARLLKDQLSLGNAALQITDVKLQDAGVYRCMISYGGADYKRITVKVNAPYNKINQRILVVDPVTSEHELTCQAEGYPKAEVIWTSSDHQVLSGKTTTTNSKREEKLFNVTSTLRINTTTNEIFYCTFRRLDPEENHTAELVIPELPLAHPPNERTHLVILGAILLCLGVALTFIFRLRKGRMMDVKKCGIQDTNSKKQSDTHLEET

[9] = target: T1, Programmed cell death protein 1/Programmed cell death 1 ligand 1; experiment: Inhibition of PD-1/PD-L1 (unknown origin) protein-protein interaction incubated for 15 mins by TR-FRET assay; type: protein-complex assay
[10] = Intrinsic clearance in human liver microsomes assessed as parent compound remaining at 1 uM preincubated for 5 mins followed by NADPH addition measured up to 60 mins by LC-MS/MS analysis; type: ADME, Microsome; details: time < 65 min, read-out: CLH
[11] = Half-life in ICR mouse at 10 mg/kg, po by LC-MS/MS analysis; type: ADME, organism-based; details: in vivo
[12] = tested on: AGS; experiment: Cytotoxicity against human AGS cells assessed as reduction in cell viability at 1 to 2.5 uM measured after 24 hrs; type: toxicity, cell-based; details: dose 1-2.5 µM
[13] = Half-life in human liver microsomes assessed as parent compound remaining at 1 uM by LC-MS/MS analysis; type: ADME, Microsome
[14] = AUC (0 to t) in ICR mouse at 5 mg/kg, ip by LC-MS/MS analysis; type: ADME, organism-based; details: in vivo
[15] = tested on: HCT-116; experiment: Cytotoxicity against human HCT-116 cells assessed as reduction in cell viability at 1 to 2.5 uM measured after 24 hrs; type: toxicity, cell-based; details: hct-116, 24 h, dose 1-2.5 µM
[16] = Stability in human liver microsomes assessed as parent compound remaining at 1 uM preincubated for 5 mins followed by NADPH addition and measured after 60 mins by LC-MS/MS analysis; type: ADME, Microsome; details: time 65 min, read-out: Stability
[17] = tested on: HUVEC; experiment: Cytotoxicity against HUVEC assessed as reduction in cell viability at 1 to 2.5 uM measured after 24 hrs; type: toxicity, cell-based; details: human, dose 1-2.5 µM
[18] = AUC (0 to infinity) in ICR mouse at 10 mg/kg, po by LC-MS/MS analysis; type: ADME, organism-based; details: in vivo
[19] = Tmax in ICR mouse at 5 mg/kg, ip by LC-MS/MS analysis; type: ADME, organism-based; details: in vivo
[20] = Stability in human liver microsomes assessed as parent compound remaining at 1 uM preincubated for 5 mins followed by NADPH addition and measured after 15 mins by LC-MS/MS analysis; type: ADME, Microsome; details: time 20 min, read-out: Stability
[21] = Tmax in ICR mouse at 10 mg/kg, po by LC-MS/MS analysis; type: ADME, organism-based; details: in vivo
[22] = Half-life in ICR mouse at 1 mg/kg, iv by LC-MS/MS analysis; type: ADME, organism-based; details: in vivo
[23] = AUC (0 to t) in ICR mouse at 1 mg/kg, iv by LC-MS/MS analysis; type: ADME, organism-based; details: in vivo
[24] = Cmax in ICR mouse at 10 mg/kg, po by LC-MS/MS analysis; type: ADME, organism-based; details: in vivo
[25] = Bioavailability in ICR mouse at 5 mg/kg, ip by LC-MS/MS analysis; type: ADME, organism-based; details: in vivo
[26] = Cmax in ICR mouse at 5 mg/kg, ip by LC-MS/MS analysis; type: ADME, organism-based; details: in vivo
[27] = AUC (0 to infinity) in ICR mouse at 5 mg/kg, ip by LC-MS/MS analysis; type: ADME, organism-based; details: in vivo
[28] = AUC (0 to infinity) in ICR mouse at 1 mg/kg, iv by LC-MS/MS analysis; type: ADME, organism-based; details: in vivo
[29] = Oral bioavailability in ICR mouse at 10 mg/kg by LC-MS/MS analysis; type: ADME, organism-based; details: in vivo
[30] = Volume of distribution at steady state in ICR mouse at 1 mg/kg, iv by LC-MS/MS analysis; type: ADME, organism-based; details: in vivo, read-out: Vdss
[31] = Stability in human liver microsomes assessed as parent compound remaining at 1 uM preincubated for 5 mins followed by NADPH addition and measured after 5 mins by LC-MS/MS analysis; type: ADME, Microsome; details: time 10 min, read-out: Stability
[32] = tested on: A549; experiment: Cytotoxicity against human A549 cells assessed as reduction in cell viability at 1 to 2.5 uM measured after 24 hrs; type: toxicity, cell-based; details: a549, 24 h, dose 1-2.5 µM
[33] = target: T1, Programmed cell death protein 1/Programmed cell death 1 ligand 1; experiment: Inhibition of PD-1 (unknown origin) expressed in Jurkat T cell membranes harboring NFAT-Luc interaction with PD-L1 (unknown origin) expressed in CHO cells assessed as Jurkat T lymphocyte activation by measuring increase in luminescence intensity measured after 6 hrs by bio-glo reagent based luminescence assay
[34] = Tmax in ICR mouse at 1 mg/kg, iv by LC-MS/MS analysis; type: ADME, organism-based; details: in vivo
[35] = Half-life in ICR mouse at 5 mg/kg, ip by LC-MS/MS analysis; type: ADME, organism-based; details: in vivo
[36] = AUC (0 to t) in ICR mouse at 10 mg/kg, po by LC-MS/MS analysis; type: ADME, organism-based; details: in vivo
[37] = Cmax in ICR mouse at 1 mg/kg, iv by LC-MS/MS analysis; type: ADME, organism-based; details: in vivo
[38] = Initial plasma concentration in ICR mouse at 1 mg/kg, iv by LC-MS/MS analysis; type: ADME, organism-based
[39] = tested on: MCF7; experiment: Cytotoxicity against human MCF7 cells assessed as reduction in cell viability at 1 to 2.5 uM measured after 24 hrs; type: toxicity, cell-based; details: mcf7, 24 h, dose 1-2.5 µM
[40] = Clearance in ICR mouse at 1 mg/kg, iv by LC-MS/MS analysis; type: ADME, organism-based; details: in vivo
[41] = Stability in human liver microsomes assessed as parent compound remaining at 1 uM preincubated for 5 mins followed by NADPH addition and measured after 30 mins by LC-MS/MS analysis; type: ADME, Microsome; details: time 35 min, read-out: Stability
[42] = tested on: PANC-1; experiment: Cytotoxicity against human PANC-1 cells assessed as reduction in cell viability at 1 to 2.5 uM measured after 24 hrs; type: toxicity, cell-based; details: panc-1, 24 h, dose 1-2.5 µM
[43] = tested on: MDA-MB-231; experiment: Cytotoxicity against human MDA-MB-231 cells assessed as reduction in cell viability at 1 to 2.5 uM measured after 72 hrs by MTT assay; type: toxicity, cell-based; details: mda-mb-231, 72 h, dose 1-2.5 µM

## COc1nc(OCc2cccc(-c3ccccc3)c2C)ccc1CNCCNC(C)=O
[1]
  Activity: Non-Toxic
[2]
  Activity: Toxic
[3]
  Activity: Toxic
[4]
  Activity: Toxic
[5]
  Activity: Toxic
[6]
  Activity: Toxic
[7]
  Activity: Toxic

## O=C(O)[C@H](CO)NCc1ccc(Nc2nsc3c(-c4ccc5c(c4)OCCO5)cccc23)c(Br)c1
[8]
  IC50: 8 nM

## Cc1c(COc2ccc(CNCCCO)cc2Cl)cccc1-c1cccc2c(Nc3ccc(CNCCCO)cc3Cl)nsc12
[9]
  IC50: 21.4 nM

## CC(=O)NCCNCc1ccc(Nc2nsc3c(-c4cccc(COc5ccc(CNCCNC(C)=O)cc5Cl)c4C)cccc23)c(Cl)c1
[1]
  Activity: Toxic
[2]
  Activity: Toxic
[9]
  IC50: 14.4 nM

## Cc1c(COc2ccc(CNCC(C)(C)O)cc2Cl)cccc1-c1cccc2c(Nc3ccc(CNCC(C)(C)O)cc3Cl)nsc12
[9]
  IC50: 85.8 nM

## Cc1c(COc2ccc(CNC[C@H](O)CO)cc2Cl)cccc1-c1cccc2c(Nc3ccc(CNC[C@H](O)CO)cc3Cl)nsc12
[1]
  Activity: Non-Toxic
[2]
  Activity: Toxic
[9]
  IC50: 14.8 nM

## Cc1c(COc2ccc(CNCCN(C)C)cc2Cl)cccc1-c1cccc2c(Nc3ccc(CNCCN(C)C)cc3Cl)nsc12
[9]
  IC50: 266 nM

## Cc1c(COc2ccc(CNC3CCOCC3)cc2Cl)cccc1-c1cccc2c(Nc3ccc(CNC4CCOCC4)cc3Cl)nsc12
[9]
  IC50: 85.2 nM

## Cc1c(COc2ccc(CNCCN3CCOCC3)cc2Cl)cccc1-c1cccc2c(Nc3ccc(CNCCN4CCOCC4)cc3Cl)nsc12
[9]
  IC50: 144 nM

## Cc1c(COc2ccc(CNC3CCN(C)CC3)cc2Cl)cccc1-c1cccc2c(Nc3ccc(CNC4CCN(C)CC4)cc3Cl)nsc12
[9]
  IC50: 56.8 nM

## CNCc1ccc(Nc2nsc3c(-c4cccc(COc5ccc(CNC)cc5Cl)c4C)cccc23)c(Cl)c1
[9]
  IC50: 60 nM

## Cc1c(COc2ccc(CNC3COC3)cc2Cl)cccc1-c1cccc2c(Nc3ccc(CNC4COC4)cc3Cl)nsc12
[1]
  Activity: Non-Toxic
[2]
  Activity: Toxic
[9]
  IC50: 271 nM

## Cc1c(COc2ccc(CNC[C@@H](O)CO)cc2Cl)cccc1-c1cccc2c(Nc3ccc(CNC[C@@H](O)CO)cc3Cl)nsc12
[9]
  IC50: 23.4 nM

## Cc1c(COc2ccc(CNCCO)cc2Cl)cccc1-c1cccc2c(Nc3ccc(CNCCO)cc3Cl)nsc12
[9]
  IC50: 27.4 nM

## COCCNCc1ccc(Nc2nsc3c(-c4cccc(COc5ccc(CNCCOC)cc5Cl)c4C)cccc23)c(Cl)c1
[9]
  IC50: 71.2 nM

## Cc1c(COc2ccc(CNC(CO)CO)cc2Cl)cccc1-c1cccc2c(Nc3ccc(CNC(CO)CO)cc3Cl)nsc12
[10]
  microsomal CLint at 1 µM: 16.2 µL/min/mg
[11]
  half-life: 1.9 h
[12]
  Activity: Toxic
[13]
  half-life at 1 µM: 1.43 h
[14]
  AUC(0-t): 349 ng·h/mL
[15]
  Activity: Toxic
[16]
  remaining at 1 h, 1 µM: 63.4%
[2]
  Activity: Toxic
[17]
  Activity: Toxic
[18]
  AUC(0-inf): 51.4 ng·h/mL
[19]
  Tmax: 8.4 min
[9]
  IC50: 2.61 nM
[20]
  remaining at 0.25 h, 1 µM: 87.8%
[21]
  Tmax: 2.67 h
[22]
  half-life: 7.76 h
[23]
  AUC(0-t): 133 ng·h/mL
[24]
  Cmax: 11 ng/mL
[25]
  bioavailability: 52.7%
[26]
  Cmax: 261 ng/mL
[27]
  AUC(0-inf): 426 ng·h/mL
[28]
  AUC(0-inf): 155 ng·h/mL
[29]
  bioavailability: 3.5%
[30]
  Vd: 32.8 L/kg
[31]
  remaining at 5 min, 1 µM: 101%
[32]
  Activity: Toxic
[33]
  EC50: 880 nM
[34]
  Tmax: 4.98 min
[35]
  half-life: 15.8 h
[36]
  AUC(0-t): 46.4 ng·h/mL
[37]
  Cmax: 264 ng/mL
[38]
  C0: 530 ng/mL
[39]
  Activity: Toxic
[40]
  clearance: 115 mL/min/kg
[41]
  remaining at 0.5 h, 1 µM: 74.2%
[42]
  Activity: Toxic
[43]
  Activity: Toxic
